Among the data in patent US10961231B2, “NTCP inhibitors” (National Institute of Biological Sciences, Beijing, priority 2018, dated 2021) are IC50 values, retold here.

The target of the first test is T1, NTCP (Homo sapiens, UniProt Q14973).
T1 sequence (Q14973 1-349): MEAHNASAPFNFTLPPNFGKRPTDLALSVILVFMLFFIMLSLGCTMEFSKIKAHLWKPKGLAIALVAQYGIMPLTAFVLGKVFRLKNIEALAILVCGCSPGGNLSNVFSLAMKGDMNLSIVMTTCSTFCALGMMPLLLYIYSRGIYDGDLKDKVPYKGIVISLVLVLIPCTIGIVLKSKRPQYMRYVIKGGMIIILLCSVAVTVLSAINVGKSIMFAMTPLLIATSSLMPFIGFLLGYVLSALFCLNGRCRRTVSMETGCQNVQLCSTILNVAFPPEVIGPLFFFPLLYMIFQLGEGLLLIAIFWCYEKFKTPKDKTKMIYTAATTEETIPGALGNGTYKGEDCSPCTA
Briefly: [3H]-TCA uptake assay (NTCP inhibition). The test is classed as cell-based. Conditions: IC50, given as a range, marked * (asterisk not explained). As for the experimental part:
[^3H]-TCA uptake assay. PTH and HepG2-NTCP cells were cultured in PMM for 24 hours to induce NTCP expression. After treated by DMSO or test compounds for 2 hours, the cells were then incubated with 1 μM [^3H]-taurocholate acid dissolved in Na^+ Ringer's buffer (the concentration of Na was 145 mM) for 15 minutes at 37° C. Subsequently, the cells were washed once in phosphate-buffered saline (PBS) and lysed in 50 μL 1% TritonX-100 in H2O for 5 minutes at room temperature. The lysate were totally transferred into a liquid scintillation 96 well plate and mixed with 200 μL liquid scintillation cocktail (Ultima Gold XR, PerkinElmer). Liquid scintillation counting was performed on a PerkinElmer 1450 LSC liquid scintillation counter.
With `CCC1NC(=O)C(C2OC(Oc3ccc(C)cc3)CC2C)N(C)C(=O)C(C(C)C)N(C)C(=O)C(CC(C)C)N(C)C(=O)C(CC(C)C)N(C)C(=O)C(C)NC(=O)C(C)NC(=O)C(CC(C)C)N(C)C(=O)C(C(C)C)NC(=O)C(CC(C)C)N(C)C(=O)CN(C)C1=O` (centres unmarked) [Compound 2A-o], the IC50 (in general, the concentration that gives 50% inhibition) fell in the range of 1000 to 100000 nM.

As to `CCC1NC(=O)C(C2OC(Oc3ccc(N4CCOCC4)cc3)CC2C)N(C)C(=O)C(C(C)C)N(C)C(=O)C(CC(C)C)N(C)C(=O)C(CC(C)C)N(C)C(=O)C(C)NC(=O)C(C)NC(=O)C(CC(C)C)N(C)C(=O)C(C(C)C)NC(=O)C(CC(C)C)N(C)C(=O)CN(C)C1=O` (centres unmarked) [Compound 3A-o], the IC50 was in the range of 1000 to 100000 nM.

The molecule `CCC1NC(=O)C(C2OC(Oc3ccc(NC(C)=O)cc3)CC2C)N(C)C(=O)C(C(C)C)N(C)C(=O)C(CC(C)C)N(C)C(=O)C(CC(C)C)N(C)C(=O)C(C)NC(=O)C(C)NC(=O)C(CC(C)C)N(C)C(=O)C(C(C)C)NC(=O)C(CC(C)C)N(C)C(=O)CN(C)C1=O` (centres unmarked) [Compound 4A-o] had an IC50 of 1000 to 100000 nM.

For `CCC1NC(=O)C(C2OC(Oc3ccc(OS(C)(=O)=O)cc3)CC2C)N(C)C(=O)C(C(C)C)N(C)C(=O)C(CC(C)C)N(C)C(=O)C(CC(C)C)N(C)C(=O)C(C)NC(=O)C(C)NC(=O)C(CC(C)C)N(C)C(=O)C(C(C)C)NC(=O)C(CC(C)C)N(C)C(=O)CN(C)C1=O` (centres unmarked) [Compound 5A-o], the 50% inhibitory concentration (IC50) was in the range of 1000 to 100000 nM.

The molecule `CCC1NC(=O)C(C2OC(Oc3ccc(N4CCN(C)CC4)cc3)CC2C)N(C)C(=O)C(C(C)C)N(C)C(=O)C(CC(C)C)N(C)C(=O)C(CC(C)C)N(C)C(=O)C(C)NC(=O)C(C)NC(=O)C(CC(C)C)N(C)C(=O)C(C(C)C)NC(=O)C(CC(C)C)N(C)C(=O)CN(C)C1=O` (centres unmarked) [Compound 6A-o] had an IC50 of 1000 to 100000 nM.

As to `CCC1NC(=O)C(C2OC(Oc3ccc(CN4CCN(C)CC4)cc3)CC2C)N(C)C(=O)C(C(C)C)N(C)C(=O)C(CC(C)C)N(C)C(=O)C(CC(C)C)N(C)C(=O)C(C)NC(=O)C(C)NC(=O)C(CC(C)C)N(C)C(=O)C(C(C)C)NC(=O)C(CC(C)C)N(C)C(=O)CN(C)C1=O` (centres unmarked) [Compound 7A-o], the IC50 lay within 1000 to 100000 nM.

As for `CCCCc1ccc(OC2CC(C)C(C3C(=O)NC(CC)C(=O)N(C)CC(=O)N(C)C(CC(C)C)C(=O)NC(C(C)C)C(=O)N(C)C(CC(C)C)C(=O)NC(C)C(=O)NC(C)C(=O)N(C)C(CC(C)C)C(=O)N(C)C(CC(C)C)C(=O)N(C)C(C(C)C)C(=O)N3C)O2)cc1` (centres unmarked) [Compound 8A-o], the IC50 was in the range of 1000 to 100000 nM.

As for `CCC1NC(=O)C(C2OC(Oc3ccc(C4CCCCC4)cc3)CC2C)N(C)C(=O)C(C(C)C)N(C)C(=O)C(CC(C)C)N(C)C(=O)C(CC(C)C)N(C)C(=O)C(C)NC(=O)C(C)NC(=O)C(CC(C)C)N(C)C(=O)C(C(C)C)NC(=O)C(CC(C)C)N(C)C(=O)CN(C)C1=O` (centres unmarked) [Compound 9A-o], the IC50 lay within 1000 to 100000 nM.

As for `CCC1NC(=O)C(C2OC(Oc3ccc(SCCCS(=O)(=O)O)cc3)CC2C)N(C)C(=O)C(C(C)C)N(C)C(=O)C(CC(C)C)N(C)C(=O)C(CC(C)C)N(C)C(=O)C(C)NC(=O)C(C)NC(=O)C(CC(C)C)N(C)C(=O)C(C(C)C)NC(=O)C(CC(C)C)N(C)C(=O)CN(C)C1=O` (centres unmarked) [Compound 10A-o], the IC50 is 1000 to 100000 nM.

The same test, now with this note: IC50, given as a range; assay not given.
As for `CCC1NC(=O)C(C2OC(Sc3ccc(NC(C)=O)cc3)CC2C)N(C)C(=O)C(C(C)C)N(C)C(=O)C(CC(C)C)N(C)C(=O)C(CC(C)C)N(C)C(=O)C(C)NC(=O)C(C)NC(=O)C(CC(C)C)N(C)C(=O)C(C(C)C)NC(=O)C(CC(C)C)N(C)C(=O)CN(C)C1=O` [Compound 4A, [2-((2R,3R)-5-(4-acetamidophenylthio)-3-methyltetrahydrofuran-2-yl)-2-(methylamino)acetic acid]^1-cyclosporin A], the IC50 fell in the range of 1000 to 10000 nM.

With `CCC1NC(=O)C(C2OC(Sc3ccc(OS(C)(=O)=O)cc3)CC2C)N(C)C(=O)C(C(C)C)N(C)C(=O)C(CC(C)C)N(C)C(=O)C(CC(C)C)N(C)C(=O)C(C)NC(=O)C(C)NC(=O)C(CC(C)C)N(C)C(=O)C(C(C)C)NC(=O)C(CC(C)C)N(C)C(=O)CN(C)C1=O` [Compound 5A, [2-((2R,3R)-3-methyl-5-(4-(methylsulfonyloxy)phenylthio)tetrahydrofuran-2-yl)-2-(methylamino)acetic acid]^1-cyclosporin A], the half-maximal inhibitory concentration (IC50) fell in the range of 1000 to 10000 nM.

`CCC1NC(=O)C(C2OC(Sc3ccc(CN4CCN(C)CC4)cc3)CC2C)N(C)C(=O)C(C(C)C)N(C)C(=O)C(CC(C)C)N(C)C(=O)C(CC(C)C)N(C)C(=O)C(C)NC(=O)C(C)NC(=O)C(CC(C)C)N(C)C(=O)C(C(C)C)NC(=O)C(CC(C)C)N(C)C(=O)CN(C)C1=O` [Compound 7A, [2-((2R,3R)-3-methyl-5-(4-((4-methylpiperazin-1-yl)methyl)phenylthio)tetrahydrofuran-2-yl)-2-(methylamino)acetic acid]^1-cyclosporin A]: the IC50 is 1000 to 10000 nM.

Still in this test, the particulars now being: given as a range; assay not given.
`CCC1NC(=O)C(C2OC(Sc3ccc(N4CCOCC4)cc3)CC2C)N(C)C(=O)C(C(C)C)N(C)C(=O)C(CC(C)C)N(C)C(=O)C(CC(C)C)N(C)C(=O)C(C)NC(=O)C(C)NC(=O)C(CC(C)C)N(C)C(=O)C(C(C)C)NC(=O)C(CC(C)C)N(C)C(=O)CN(C)C1=O` [Compound 3A, [2-((2R,3R)-3-methyl-5-(4-morpholinophenylthio)tetrahydrofuran-2-yl)-2-(methylamino)acetic acid]^1-cyclosporin A]: the IC50 lay within 1 to 1000 nM.

`CCC1NC(=O)C(C2OC(Sc3ccc(N4CCN(C)CC4)cc3)CC2C)N(C)C(=O)C(C(C)C)N(C)C(=O)C(CC(C)C)N(C)C(=O)C(CC(C)C)N(C)C(=O)C(C)NC(=O)C(C)NC(=O)C(CC(C)C)N(C)C(=O)C(C(C)C)NC(=O)C(CC(C)C)N(C)C(=O)CN(C)C1=O` [Compound 6A, [2-((2R,3R)-3-methyl-5-(4-(4-methylpiperazin-1-yl)phenylthio)tetrahydrofuran-2-yl)-2-(methylamino)acetic acid]^1-cyclosporin A] had an IC50 of 1 to 1000 nM.

Molecule `CCCCc1ccc(SC2CC(C)C(C3C(=O)NC(CC)C(=O)N(C)CC(=O)N(C)C(CC(C)C)C(=O)NC(C(C)C)C(=O)N(C)C(CC(C)C)C(=O)NC(C)C(=O)NC(C)C(=O)N(C)C(CC(C)C)C(=O)N(C)C(CC(C)C)C(=O)N(C)C(C(C)C)C(=O)N3C)O2)cc1` [Compound 8A, [2-((2R,3R)-5-(4-butylphenylthio)-3-methyltetrahydrofuran-2-yl)-2-(methylamino)acetic acid]^1-cyclosporin A] had an IC50 of 1 to 1000 nM.

On to `CCC1NC(=O)C(C2OC(Sc3ccc(C4CCCCC4)cc3)CC2C)N(C)C(=O)C(C(C)C)N(C)C(=O)C(CC(C)C)N(C)C(=O)C(CC(C)C)N(C)C(=O)C(C)NC(=O)C(C)NC(=O)C(CC(C)C)N(C)C(=O)C(C(C)C)NC(=O)C(CC(C)C)N(C)C(=O)CN(C)C1=O` [Compound 9A, [2-((2R,3R)-5-(4-cyclohexylphenylthio)-3-methyltetrahydrofuran-2-yl)-2-(methylamino)acetic acid]^1-cyclosporin A], for which the IC50 was 1000 to 1e+06 nM.

On to `CCC1NC(=O)C(C2OC(Sc3ccc(SCCCS(=O)(=O)O)cc3)CC2C)N(C)C(=O)C(C(C)C)N(C)C(=O)C(CC(C)C)N(C)C(=O)C(CC(C)C)N(C)C(=O)C(C)NC(=O)C(C)NC(=O)C(CC(C)C)N(C)C(=O)C(C(C)C)NC(=O)C(CC(C)C)N(C)C(=O)CN(C)C1=O` [Compound 10A, [2-((2R,3R)-3-methyl-5-(4-(3-sulfopropylthio)phenylthio)tetrahydrofuran-2-yl)-2-(methylamino)acetic acid]^1-cyclosporin A], for which the IC50 was 1000 to 1e+06 nM.
